For the assay, the species on record is Rattus norvegicus. The assay can be described thus: Inhibition of rat recombinant geranylgeranyltransferase type I expressed in Escherichia coli assessed as residual enzyme activity for geranylgeranylation of K-Ras4B at 50 uM incubated for 30 mins in presence of [3H]GGPP by scintillation counting assay relative to control.

The structures appear in SMILES notation.

With `COc1ccc([C@@H]2CC=C(C(=O)O)[C@H](c3cccc(Cl)c3)N2S(=O)(=O)c2ccccc2)cc1`, the Activity worked out at 56.1%.

Turning to `COc1cc([C@@H]2C[C@@H](Sc3ccccc3)[C@H](C(=O)O)CN2S(=O)(=O)c2ccc(C)cc2)cc(OC)c1OC`, the Activity is 83.7%.

As to `CCCCCS[C@@H]1C[C@@H](c2ccc(CC)cc2)N(S(=O)(=O)c2ccc(C)cc2)C[C@H]1C(=O)O`, the Activity amounted to 65.8%.

`C=CCS[C@@H]1C[C@@H](c2ccc(C)cc2)N(S(=O)(=O)c2ccc(C)cc2)C[C@H]1C(=O)O`: the Activity was 94.1%.

On to `COc1ccc(S[C@@H]2C[C@@H](c3ccc(C)cc3)N(S(=O)(=O)c3ccc(C)cc3)C[C@H]2C(=O)O)cc1`, for which the Activity turned out to be 78.4%.

Turning to `Cc1ccc([C@@H]2CC=C(C(=O)O)[C@H](c3ccc(Cl)cc3)N2S(=O)(=O)c2ccc(C)cc2)cc1`, the Activity turned out to be 67.4%.

`Cc1ccc([C@@H]2C[C@@H](Sc3ccccc3)[C@H](C(=O)O)CN2S(=O)(=O)c2ccccc2)cc1`: the Activity was found to be 92%.

Consider `CCOc1ccc([C@@H]2C[C@@H](Sc3ccccc3)[C@H](C(=O)O)CN2S(=O)(=O)c2ccc(C)cc2)cc1`, for which the Activity amounted to 61.1%.

On to `COc1ccc(S[C@@H]2C[C@@H](c3ccc(OC)cc3)N(S(=O)(=O)c3ccccc3C)C[C@H]2C(=O)O)cc1`, for which the Activity stood at 82.2%.

`Cc1ccc(S(=O)(=O)N2[C@@H](c3ccc(C(C)(C)C)cc3)C(C(=O)O)=CC[C@H]2c2cccc(Cl)c2)cc1`: the Activity turned out to be 78.8%.

Turning to `CCOc1ccc([C@@H]2CC=C(C(=O)O)[C@H](c3cccc(Cl)c3)N2S(=O)(=O)c2ccc(C)cc2)cc1`, the Activity is 78.9%.

With `COc1ccc([C@@H]2CC=C(C(=O)O)[C@H](c3ccc(C(C)(C)C)cc3)N2S(=O)(=O)c2ccccc2)cc1`, the Activity was determined as 82.2%.

For the compound `Cc1ccc(S[C@@H]2C[C@@H](c3ccc(C)cc3)N(S(=O)(=O)c3ccc(Cl)cc3)C[C@H]2C(=O)O)cc1`, the Activity stood at 92.4%.

Consider `Cc1ccc(S(=O)(=O)N2[C@@H](c3ccc(F)cc3)C(C(=O)O)=CC[C@H]2c2cccc(Cl)c2)cc1`, for which the Activity amounted to 60.2%.

As to `COc1ccc([C@@H]2CC=C(C(=O)O)[C@H](c3ccc(Br)cc3)N2S(=O)(=O)c2ccc(C)cc2)cc1`, the Activity came to 72.1%.

As for `CCCCCCS[C@@H]1C[C@@H](c2ccc(C)cc2)N(S(=O)(=O)c2ccccc2)C[C@H]1C(=O)O`, the Activity was 81.2%.

In the case of `CCOc1ccc([C@@H]2CC=C(C(=O)O)[C@H](c3cccc(Br)c3)N2S(=O)(=O)c2ccc(C)cc2)cc1`, the Activity was determined as 78.4%.

In the case of `CCCCCS[C@@H]1C[C@@H](c2ccc(OCC)cc2)N(S(=O)(=O)c2ccc(C)cc2)C[C@H]1C(=O)O`, the Activity is 89.1%.

In the case of `COc1ccc([C@@H]2C[C@@H](SCc3ccc(C(C)(C)C)cc3)[C@H](C(=O)O)CN2S(=O)(=O)c2ccccc2C)cc1`, the Activity was determined as 87.2%.

With `C=CCS[C@@H]1C[C@@H](c2ccc(C)cc2)N(S(=O)(=O)c2ccc(Cl)cc2)C[C@H]1C(=O)O`, the Activity was 74.3%.

`CCc1ccc([C@@H]2CC=C(C(=O)O)[C@H](c3ccc(F)cc3)N2S(=O)(=O)c2ccc(C)cc2)cc1`: the Activity turned out to be 55.2%.

With `COc1ccc([C@@H]2CC=C(C(=O)O)[C@H](c3ccc(C(C)(C)C)cc3)N2S(=O)(=O)c2ccccc2C)cc1`, the Activity is 70.7%.

On to `Cc1ccc(S(=O)(=O)N2C[C@@H](C(=O)O)[C@H](SCC(C)C)C[C@H]2c2ccc(Cl)cc2)cc1`, for which the Activity amounted to 86.8%.

As to `Cc1ccc(S(=O)(=O)N2[C@@H](c3ccc(Cl)cc3)C(C(=O)O)=CC[C@H]2c2ccc3c(c2)OCO3)cc1`, the Activity was 73.4%.

As for `Cc1ccc([C@H]2C(C(=O)O)=CC[C@@H](c3ccc(C(C)C)cc3)N2S(=O)(=O)c2ccc(C)cc2)cc1`, the Activity worked out at 63.7%.

On to `C=CCS[C@@H]1C[C@@H](c2ccccc2)N(S(=O)(=O)c2ccc(C)cc2)C[C@H]1C(=O)O`, for which the Activity was found to be 98.9%.

As to `COc1ccc([C@@H]2C[C@@H](SCCC(C)C)[C@H](C(=O)O)CN2S(=O)(=O)c2ccccc2)cc1`, the Activity stood at 96.7%.

As to `O=C(O)C1=CC[C@@H](c2ccc(Cl)cc2)N(S(=O)(=O)c2ccc(Cl)cc2)[C@H]1c1ccc(F)cc1`, the Activity is 43.5%.

`COc1ccc([C@@H]2CC=C(C(=O)O)[C@H](c3ccc(C(C)(C)C)cc3)N2S(=O)(=O)c2ccc(Cl)cc2)cc1`: the Activity stood at 68.5%.

`CCCS[C@@H]1C[C@@H](c2ccc(C)cc2)N(S(C)(=O)=O)C[C@H]1C(=O)O`: the Activity is 96.8%.

For the compound `COC(=O)c1ccccc1S(=O)(=O)N1[C@@H](c2cccc(F)c2)C(C(=O)O)=CC[C@H]1c1ccc(C)cc1`, the Activity was 64.5%.

In the case of `Cc1ccc(S(=O)(=O)N2[C@@H](c3cccc(Cl)c3)C(C(=O)O)=CC[C@H]2c2ccc(C(C)C)cc2)cc1`, the Activity came out at 63.1%.

Consider `COc1ccc([C@@H]2C[C@@H](Sc3ccccc3)[C@H](C(=O)O)CN2S(=O)(=O)c2ccc(C)cc2)cc1`, for which the Activity worked out at 79.6%.

On to `Cc1ccc(S(=O)(=O)N2[C@@H](c3ccc(Cl)cc3)C(C(=O)O)=CC[C@H]2c2cccc(F)c2)cc1`, for which the Activity came out at 63.5%.

Consider `COC(=O)c1ccccc1S(=O)(=O)N1[C@@H](c2ccc(C(C)(C)C)cc2)C(C(=O)O)=CC[C@H]1c1ccc(C)cc1`, for which the Activity is 111%.

Consider `Cc1ccc([C@@H]2CC=C(C(=O)O)[C@H](c3cccc(Cl)c3)N2S(C)(=O)=O)cc1`, for which the Activity was 64.4%.

With `Cc1ccc(S(=O)(=O)N2[C@@H](c3cccc(F)c3)C(C(=O)O)=CC[C@H]2c2cccc(C)c2)cc1`, the Activity came to 75.6%.

Regarding `COc1cccc([C@@H]2C[C@@H](SCc3ccc(Cl)cc3)[C@H](C(=O)O)CN2S(=O)(=O)c2ccc(C)cc2)c1`, the Activity came out at 34.4%.

Turning to `Cc1ccc(S(=O)(=O)N2[C@@H](c3cccc(F)c3)C(C(=O)O)=CC[C@H]2c2ccc(C#N)cc2)cc1`, the Activity turned out to be 88.3%.

As for `Cc1ccc(S(=O)(=O)N2[C@@H](c3ccc(F)cc3)C(C(=O)O)=CC[C@H]2c2cccc(C)c2)cc1`, the Activity is 71.2%.

In the case of `Cc1ccc(S(=O)(=O)N2C[C@@H](C(=O)O)[C@H](SC3CCCC3)C[C@H]2c2cccc(Br)c2)cc1`, the Activity turned out to be 72.1%.

For the compound `Cc1ccc(S(=O)(=O)N2[C@@H](c3ccc(Cl)cc3)C(C(=O)O)=CC[C@H]2c2cccc(C)c2)cc1`, the Activity came to 74.7%.

`CCOc1ccc([C@@H]2C[C@@H](SCC)[C@H](C(=O)O)CN2S(=O)(=O)c2ccc(C)cc2)cc1`: the Activity was 87.1%.

As for `COc1ccc([C@@H]2CC=C(C(=O)O)[C@H](c3ccc(Br)cc3)N2S(=O)(=O)c2ccc(Cl)cc2)cc1`, the Activity turned out to be 76.2%.

With `Cc1ccc(S(=O)(=O)N2[C@@H](c3ccc(Cl)cc3)C(C(=O)O)=CC[C@H]2c2ccc(Cl)cc2)cc1`, the Activity came to 52.8%.

`CC(=O)C1=CC[C@@H](c2ccc(C)cc2)N(S(=O)(=O)c2ccccc2[N+](=O)[O-])C1`: the Activity is 110%.

Turning to `CCOc1ccc([C@@H]2C[C@@H](SCc3ccccc3)[C@H](C(=O)O)CN2S(=O)(=O)c2ccc(C)cc2)cc1`, the Activity was 50.9%.

Take `Cc1ccc([C@@H]2CC=C(C(=O)O)[C@H](c3ccc(Cl)cc3)N2S(C)(=O)=O)cc1`: the Activity turned out to be 79.1%.

As to `COc1cc([C@@H]2CC=C(C(C)=O)CN2S(=O)(=O)c2ccc(C)cc2)cc(OC)c1OC`, the Activity was found to be 92.3%.

Turning to `COc1ccc(S[C@@H]2C[C@@H](c3ccccc3)N(S(=O)(=O)c3ccc(C)cc3)C[C@H]2C(=O)O)cc1`, the Activity amounted to 99.1%.

For the origin of these results see ChEMBL document CHEMBL4421722, “Inhibitors of protein prenyltransferases” (2013).
